Assay results as given in patent US20240261292A1, “COMBINATION THERAPIES” (Janssen Pharmaceutica NV, priority 2021, published 2024).
Structures can show the parent of a compound that is named as a salt. Where two headings read alike, the source gives them in different places.

Key:
KO-52 cells = assay: Proliferation assay (spheroid), KO-52 control cell line; format: cell-based; conditions: Homo sapiens, 8 days, read-out: spheroid assay_OneTime KO-52 IC50
Protocol: (§1) The anti-proliferative effect of menin/MLL protein/protein interaction inhibitor test compounds was assessed inhuman leukemia cell lines. The cell line MOLM-14 harbors a MLL translocation and expresses the MLL fusion protein MLL-AF9, respectively, as well as the wildtype protein from the second allele. OCI-AML3 cells that carry the NPM1c gene mutation were also tested. […] KO-52 was used as a control cell line containing two MLL (KMT2A) wildtype alleles in order to exclude compounds that display general cytotoxic effects.
(§2) KO-52 and OCI-AML3 cell lines were propagated in alpha-MEM (Sigma Aldrich) supplemented with 20% heat-inactivated fetal bovine serum (HyClone), 2 mM L-glutamine (Sigma Aldrich) and 50 μg/ml gentamycin (Gibco).
In order to assess the anti-proliferative effects, 200 MOLM-14 cells, 200 OCI-AML3 cells or 300 KO-52 cells were seeded in 200 μl media per well in 96-well round bottom, ultra-low attachment plates (Costar, catalogue number 7007). […] Spheroid like growth was measured in real-time by live-cell imaging (IncuCyteZOOM, Essenbio, 4× objective) acquiring images at day 8. Confluence (%) as a measure of spheroid size was determined using an integrated analysis tool.
In order to determine the effect of the test compounds over time, the confluence in each well as a measure of spheroid size, was calculated. […]

OCI-AML3 cells = assay: Proliferation assay (spheroid), OCI-AML3; format: cell-based, human; conditions: Homo sapiens, OCI-AML-3, […], 8 days
Protocol: as §1, §2
In order to assess the anti-proliferative effects, 200 MOLM-14 cells, 200 OCI-AML3 cells or 300 KO-52 cells were seeded in 200 μl media per well in 96-well round bottom, ultra-low attachment plates (Costar, catalogue number 7007). Cell seeding numbers were chosen based on growth curves to ensure linear growth throughout the experiment. Test compounds were added at different concentrations and the DMSO content was normalized to 0.3%. Cells were incubated for 8 days at 37° C. and 5% CO2. Spheroid like growth was measured in real-time by live-cell imaging (IncuCyteZOOM, Essenbio, 4× objective) acquiring images at day 8. Confluence (%) as a measure of spheroid size was determined using an integrated analysis tool.
In order to determine the effect of the test compounds over time, the confluence in each well as a measure of spheroid size, was calculated. Confluence of the highest dose of a reference compound was used as baseline for the LC (Low control) and the confluence of DMSO treated cells was used as 0% cytotoxicity (High Control, HC).
HC=High Control: Mean confluence (%) (DMSO treated cells);
Dose-response equation was used for the plot of % Effect vs Log10 compound concentration with a variable slope and fixing the maximum to 100% and the minimum to 0%. 2b) MEIS1 mRNA Expression Assay

[1] = Metabolic stability in mouse liver microsomes; format: in vitro ADME; conditions: pH 7.4, 0.5 mg/mL microsomes protein, read-out: Mouse LM Clint
Protocol: 4) Metabolic Stability in Human/Mouse Liver Microsomes
The objective of this study is to measure in vitro metabolic stability of test compound(s) in human and mouse liver microsomes and provide quantitative information on the rate of metabolic turnover (i.e., determination of the apparent intrinsic clearance of test).
Test items were prepared at a stock concentration of 10 mM in DMSO. For determination of metabolic turnover, a final working solution was prepared by adding 2 μL of 10 mM DMSO stock solution for test compound or positive control compounds to 198 μL of acetonitrile (100 μM final concentration).
Incubations were performed as follows: First, liver microsomes were thawed on ice and a master solution containing liver microsomes in 100 mM PBS (phosphate-buffered saline) at pH 7.4 is prepared. Next, the liver microsomes solution was added to the incubation plates and 10 mM NADPH (Nicotinamide-adenine dinucleotide phosphate) was added (MW: 833.4 g/mol; Roche Diagnostics GmbH1, Germany. Dissolved in phosphate buffer (100 mmol/L, pH 7.4)). The mixture was mixed for 10 seconds and pre-warmed in the incubation plate at 37° C. for 10 minutes. The metabolic reaction was initiated with the addition of 5 μL of the 100 μM working solution for test compound or positive control compounds to incubation plate (final test item concentration=1 μM). The reaction final mixture should contain 1 mM NADPH, 0.5 mg/mL microsomes protein and 1 μM test compound or positive control compound in 100 mM PBS at pH 7.4. The percentage of organic solvent in incubation mixture is 1% with DMSO 0.02%.
The reaction was quenched by transferring 50 μL of the incubated mixture at selected time points into the quenching plate containing 200 μL of cold methanol. […]
All calculations were carried out using Microsoft Excel. The slope value, k, was determined by linear regression of the natural logarithm of the remaining percentage of the parent drug vs. incubation time curve.
The in vitro half-life (in vitro t1/2) was determined from the slope value: […]

| microsomal CLint at 1 μM ([1]; liver microsomes) [µL/min/mg] | Structure (SMILES) | IC50 (KO-52 cells) [µM] | IC50 (OCI-AML3 cells) [µM] | microsomal CLint at 1 μM ([1]; mouse liver microsomes) [µL/min/mg] |
| --- | --- | --- | --- | --- |
| < 7.5 | CCN(C(=O)c1cc(F)ccc1Oc1nncnc1N1CCC2(C1)CN([C@H](CCCNCCOC)C(C)C)C2)C(C)C [Compound 11, (R)-N-ethyl-5-fluoro-N-isopropyl-2-((5-(2-(6-((2-methoxyethyl)amino)-2-methylhexan-3-yl)-2,6-diazaspiro[3.4]octan-6-yl)-1,2,4-triazin-6-yl)oxy)benzamide] | 8.38 | 0.21 | – |
| – | CCN(C(=O)c1cc(F)ccc1Oc1nncnc1N1CCC2(C1)CN([C@H](CCCN(C)CCOC)C(C)C)C2)C(C)C [Compound A3, (R)-N-ethyl-5-fluoro-N-isopropyl-2-((5-(2-(6-((2-methoxyethyl) (methyl)amino)-2-methylhexan-3-yl)-2,6-diazaspiro[3.4]octan-6-yl)-1,2,4-triazin-6-yl)oxy) benzamide oxalate] | 7.75 | 0.12 | < 7.5 |
